Experimental data taken from patent US20170202840A1, “TREATMENT OF PANCREATIC CANCER WITH LIPOSOMAL IRINOTECAN” (MERRIMACK PHARMACEUTICALS, INC., priority 2016, published 2017).
Structures can show the parent of a compound that is named as a salt. Where two headings read alike, the source gives them in different places.

Experiments:
[1] = system: cytochrome P-450 isozymes; settings: in vitro; cited from earlier work
[2] = in vivo
Description: Serum bilirubin within the institutional normal range, albumin≧3 g/dL, and Karnofsky Performance Status (KPS)≧70 were required for study entry.
TEAEs were graded by NCI CTCAE v4.0 and coded by MedDRA v14.1 for the following prespecified subgroups: sex, age (<65 vs ≧65 years), ethnicity (white vs Asian), UGT1A1*28 status, prior conventional irinotecan therapy (yes vs no), and prior 5-FU therapy (yes vs no). All TEAEs were followed until resolution or patient discontinuation. Analyses were performed on the safety population (ie, those who received≧1 dose of study medication).
All TEAEs were followed until resolution or patient discontinuation. The safety analysis population included all patients who received≧1 dose of study drug. The presence of the UGT1A1*28 allele was determined by genotype testing, and homozygous patients were identified (A7/TA7 genotype)

[3] = dog, in vivo
[4] = rats, cited from earlier work
[5] = rabbits, 6 mg/kg/day; cited from earlier work
[6] = cited from earlier work
[7] = intravenous; cited from earlier work
[8] = rat, in vivo; cited from earlier work
[9] = mouse; cited from earlier work
[10] = intravenous; cited from earlier work; remark: listed apart in the source
[11] = human, in vivo; cited from earlier work

In the case of `CCc1c2c(nc3ccc(O)cc13)-c1cc3c(c(=O)n1C2)COC(=O)[C@]3(O)CC` [SN-38], the “Inhibition of cytochrome P-450 isozymes” value [1] is listed as “do not inhibit cytochrome P-450 isozymes”.
In the case of “irinotecan sucrose octasulfate salt liposome injection [MM-398]”, the “Incidence of neutropenic sepsis” value [2] is reported as 0.8% and the “Doses with atrophy of male and female reproductive organs” value [3] is reported as ≥ 13 mg/kg.
In the case of `CCc1c2c(nc3ccc(OC(=O)N4CCC(N5CCCCC5)CC4)cc13)-c1cc3c(c(=O)n1C2)COC(=O)[C@]3(O)CC` [irinotecan, (5) 4,11-diethyl-3,4,12,14-tetrahydro-4-hydroxy-3,14-dioxo1H-pyrano[3′,4′: 6,7]-indolizino[1,2b]quinolin-9-yl-[1,4′bipiperidine]-1′-carboxylate], the “Embryo-fetal effects, intravenous during organogenesis” value ([4]; 6 mg/kg/day) is given as “increased post-implantation loss and decreased numbers of live fetuses”, the Placental transfer ([4]; intravenous) is given as “crosses the placenta” and the “Embryo-fetal effects, intravenous during organogenesis” value [5] is given as “increased post-implantation loss and decreased numbers of live fetuses”. The “Incidence of grade 4 neutropenia” value ([6]; 350 mg/m2 once every-3-weeks, homozygous UGT1A1*28) was ≤ 50%, the “Incidence of grade 4 neutropenia” value ([6]; heterozygous (UGT1A1 6/7 genotype)) was 12.5% and the “Incidence of grade 4 neutropenia” value ([6]; homozygous wild-type (UGT1A1 6/6 genotype)) was “no grade 4 neutropenia was observed”. The “Inhibition of cytochrome P-450 isozymes” value [1] was “do not inhibit cytochrome P-450 isozymes”.
In the case of `CCc1c2c(nc3ccc(OC(=O)N4CCC(N5CCCCC5)CC4)cc13)-c1cc3c(c(=O)n1C2)COC(=O)[C@]3(O)CC` [irinotecan HCl, (5) 4,11-diethyl-3,4,12,14-tetrahydro-4-hydroxy-3,14-dioxo1H-pyrano[3′,4′:6,7]-indolizino[1,2 b]quinolin-9-yl-[1,4′bipiperidine]-1′-carboxylate, monohydrochloride, trihydrate], the “Effects in offspring, dams dosed after organogenesis through weaning” value ([4]; 6 mg/kg/day) is listed as “decreased learning ability and decreased female body weights in the offspring”, the “Doses giving structural abnormalities and growth delays” value [4] is listed as “greater than 1.2 mg/kg/day” and the “Time to appearance of radioactivity in milk” value [7] is listed as ≤ 5 min. The Carcinogenicity finding [8] was “significant linear trend between irinotecan HCl dosage and the incidence of combined uterine horn endometrial stromal polyps and endometrial stromal sarcomas”, the Clastogenicity in vivo [9] was “clastogenic” and the “Doses without significant adverse effects on fertility and general reproductive performance” value [10] was “up to 6 mg/kg/day”. The “Effect of dexamethasone (moderate CYP3A4 inducer) on pharmacokinetics of irinotecan” value [11] was “does not alter the pharmacokinetics of irinotecan”, the “Exposure to irinotecan and SN-38 with concomitant ketoconazole” value [11] was “increased exposure” and the “Exposure to irinotecan or SN-38 with CYP3A4 enzyme-inducing anticonvulsants or St. John's wort” value [11] was “substantially reduced”. For the same compound, the “Urinary excretion of SN-38” value [11] was < 1% and the “Urinary excretion of SN-38 glucuronide” value [11] was 3%.
